Tested on: Wistaria floribunda agglutinin
Assay: Lectin affinity chromatography on W. floribunda agglutinin agarose
Format: binding
Conditions: elution with 100 mM N-acetylgalactosamine as specific inhibitor, FIG. 7
Description: Lectin affinity chromatography was performed as previously described (Nakano et al., Arch. Biochem. Biophys. 311, 117-126, 1994). Briefly, radiolabeled core glycans derived from glycolipid II, III (core glycan A and B respectively) and rat brain THY1 membrane anchor were applied to a 1 ml column of W. floribunda agglutinin agarose (5 mg lectin/ml gel) equilibrated in 50 mM Tris-HCl, pH 7.4 containing 0.02% sodium azide. Elution was accomplished using 25 ml of equilbration buffer followed by 15 ml of the same buffer containing 100 mM N-acetylgalactosamine as specific inhibitor.
FIG. 7: Analysis of core glycans derived from TLC purified glycolipids labelled with ^3H glucosamine on Wisaria floribunda agglutinin agarose: Core glycan A (A), core glycan (B), Man4GalNAcAHM from rat brain Thy1 anchor (C), arrow indicates buffer change

Man3(GalNAc)AHM [Core glycan A]
Affinity towards W. floribunda agglutinin column: bound to the column

From US20020058288A1, “TOXOPLASMA GONDII GLYCOCONJUGATES” (priority 1995, published 2002)
